Assay in all cases: inhibition of tumour cell growth, NCI panel, 48 h
In experiment [1] the test system is BT-549.
For experiment [2], the system named is CCRF-CEM.
Experiment [3] has as its system HCT-116.
The subject of experiment [4] is HT-29.
Experiment [5] concerns KM12.
In experiment [6] the test system is MDA-MB-231.
Experiment [7] concerns OVCAR-5.
For experiment [8], the system named is OVCAR-8.
Experiment [9] relates to SF-539.
Experiment [10] deals with SK-MEL-28.
The subject of experiment [11] is SK-MEL-5.
In experiment [12] the test system is SNB-75.
Experiment [13] relates to SR.
In experiment [14] the test system is TK-10.
The test system of experiment [15] is UACC-62.
In experiment [16] the test system is UO-31.
Experiment [17] relates to Hs-578T.
The test system of experiment [18] is NCI-H23.
Experiment [19] has as its system NCI-H460.
Experiment [20] has as its system OVCAR-4.

Structures are written as SMILES.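 Compound exposure: 48 hours, 5 concentrations, 96-well plates. GI50 is the concentration that inhibits growth by half.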 Calls of active or inactive are those of the source. Rule as the data show it: active = GI50 up to about 1.1 µM and inactive = higher.

Regarding `COc1cc2c(cc1OC)C1c3ccccc3CCN1CCC2.[O-][Cl+3]([O-])([O-])O` (stereo not given), the GI50 was 23.6 µM (inactive) in experiment [1]; > 100 µM (inactive) in experiment [2]; 74.3 µM (inactive) in [3]; 69.7 µM (inactive) in experiment [4]; > 100 µM (inactive) in experiment [5]; > 100 µM (inactive) in experiment [6]. Besides, the GI50 in experiment [7], in experiment [8], in [9], in experiment [10], in [11] and in experiment [12] was > 100 µM (inactive) each time. Besides, the GI50 in experiment [13] was > 100 µM (inactive); in experiment [14] it was > 100 µM (inactive); in [15], > 100 µM (inactive); in experiment [16] it was 48.4 µM (inactive).
For `CCc1cccc(CC)c1Nc1nc2c(s1)C(=O)c1ccccc1C2=O`, the GI50 in experiment [2] is 38.9 µM (inactive); in [3] it was 16.7 µM (inactive); in experiment [17], 22.2 µM (inactive); in experiment [5], 18.1 µM (inactive); in experiment [6], 16.5 µM (inactive); in experiment [18], 15.3 µM (inactive). The GI50 in [19] was 16.9 µM (inactive); in experiment [7], 20.3 µM (inactive); in experiment [9], 24.2 µM (inactive); in experiment [10] it was 19.1 µM (inactive); in experiment [11], 20.7 µM (inactive); in [12] it was 11.8 µM (inactive). Besides, the GI50 in [13] is 23.3 µM (inactive); in experiment [14], 21.2 µM (inactive); in [15] it was 17.2 µM (inactive); in experiment [16], 15.4 µM (inactive).
Regarding `COc1ccc([C@]23CCC4(OCC(C)(C)CO4)[C@H]4CON(O[C@H](O[C@@H]5CCCCC5C(C)(C)c5ccccc5)C2)[C@@H]43)cc1OC` (stereo not given in full), the GI50 is 69 µM (inactive) in [1]; 29.5 µM (inactive) in experiment [2]; 33.3 µM (inactive) in [3]; 44 µM (inactive) in experiment [4]; 29.6 µM (inactive) in experiment [5]; 81.7 µM (inactive) in experiment [6]. Moreover, the GI50 in experiment [18] was 47.6 µM (inactive); in experiment [19], 79.4 µM (inactive); in [20] it was 26.1 µM (inactive); in [7], 89.1 µM (inactive); in experiment [8], 60 µM (inactive); in experiment [9] it was 5.81 µM (inactive). The GI50 was 42.6 µM (inactive) in experiment [10]; 22.2 µM (inactive) in [11]; 41.5 µM (inactive) in experiment [12]; 20 µM (inactive) in experiment [13]; 78.5 µM (inactive) in [14]; 30.4 µM (inactive) in experiment [15]. The GI50 in experiment [16] is 35.8 µM (inactive).
As for `CC(=O)c1sc2c(c1OC(=O)c1cccs1)c(=O)n(-c1ccccc1)c(=S)n2-c1ccccc1`, the GI50 was 3.9 µM (inactive) in experiment [2]; 16.9 µM (inactive) in experiment [3]; 3.21 µM (inactive) in experiment [4]; 3.66 µM (inactive) in experiment [17]; 23 µM (inactive) in experiment [5]; 14.4 µM (inactive) in experiment [6]. Also, the GI50 is 19.3 µM (inactive) in [18]; 12.3 µM (inactive) in experiment [19]; 22 µM (inactive) in experiment [20]; 3.29 µM (inactive) in experiment [7]; 5.01 µM (inactive) in [8]; 2.41 µM (inactive) in experiment [9]. Besides, the GI50 in [10] was 2.99 µM (inactive); in experiment [11], 12.1 µM (inactive); in experiment [12], 29.4 µM (inactive); in experiment [14], 23.7 µM (inactive); in [15] it was 19.9 µM (inactive).
In the case of `OC(c1ccccc1)c1c(-c2ccccc2)[nH]c(-c2ccccc2)c1C(O)c1ccccc1` (stereo not given), the GI50 in experiment [2] is 2.65 µM (inactive); in experiment [3], 2.84 µM (inactive); in [4] it was 3.99 µM (inactive); in experiment [17], 3.76 µM (inactive); in experiment [5] it was 3.25 µM (inactive); in experiment [18], 3.52 µM (inactive). In addition, the GI50 in [19] is 3.06 µM (inactive); in experiment [20] it was < 0.01 µM (active); in experiment [7], 2.77 µM (inactive); in [9], 2.95 µM (inactive); in experiment [10], 3.4 µM (inactive); in experiment [11], 2.55 µM (inactive). Besides, the GI50 in experiment [13] is 4.1 µM (inactive); in experiment [14], 4.44 µM (inactive); in experiment [15] it was 2.84 µM (inactive); in experiment [16], 1.45 µM (inactive).
Regarding `C[C@]12CCC(=O)C=C1CC[C@@H]1[C@@H]2CC[C@]2(C)C(=O)/C(=C\c3ccccc3)C[C@@H]12`, the GI50 in experiment [1] was 25.8 µM (inactive); in experiment [2], 2.8 µM (inactive); in experiment [3], 11.4 µM (inactive); in [4] it was 19.6 µM (inactive); in experiment [5], 20.4 µM (inactive); in experiment [6] it was > 50.8 µM (inactive). Besides, the GI50 is 14.2 µM (inactive) in experiment [18]; 17.1 µM (inactive) in experiment [19]; 41.9 µM (inactive) in experiment [20]; 50 µM (inactive) in experiment [7]; 21.7 µM (inactive) in [8]; 21.6 µM (inactive) in experiment [9]. Further, the GI50 in experiment [10] was > 46.8 µM (inactive); in experiment [11], 14.2 µM (inactive); in [12], 61.1 µM (inactive); in experiment [13], 4.53 µM (inactive); in [14] it was 44.7 µM (inactive); in [15] it was 23.4 µM (inactive). For the same compound, the GI50 in [16] is 25.7 µM (inactive).
As for `O=C(Nc1nc2ncn(CCOC(=O)c3ccccc3)c2c(=O)[nH]1)c1ccccc1`, the GI50 in experiment [2] is 9.71 µM (inactive); in [3] it was 4.43 µM (inactive); in [4] it was 3.68 µM (inactive); in [17] it was 13.1 µM (inactive); in experiment [5] it was 3.34 µM (inactive); in experiment [6], 3.79 µM (inactive). The GI50 in experiment [18] was 20.1 µM (inactive); in experiment [19], 8.43 µM (inactive); in experiment [7], > 100 µM (inactive); in experiment [8], 33.3 µM (inactive); in [9] it was 10.8 µM (inactive); in experiment [10], 50.7 µM (inactive). Moreover, the GI50 in experiment [11] was 5.51 µM (inactive); in [12], 18.9 µM (inactive); in [13], 5.35 µM (inactive); in [14] it was > 100 µM (inactive); in experiment [15], 9.12 µM (inactive); in [16], 51.9 µM (inactive).
`CC(=O)OCC1OC(n2c(C)c(C(C)=O)c(-c3ccc(Cl)cc3)c(C#N)c2=S)C(OC(C)=O)C(OC(C)=O)C1OC(C)=O` (stereo not given): the GI50 in experiment [2], in [3], in experiment [4], in experiment [5], in [6] and in [18] was > 100 µM (inactive) in each case. The GI50 in experiment [19], in [20], in experiment [8], in experiment [9], in experiment [10] and in experiment [11] was > 100 µM (inactive) throughout. Further, the GI50 in experiment [12], in experiment [13], in [14], in experiment [15] and in [16] was > 100 µM (inactive) throughout.
Regarding `COc1ccc(/C=C/C(=O)CC(=O)/C=C/c2ccc(OC)cc2)cc1`, the GI50 in [2] is 20.9 µM (inactive); in experiment [3], 15.3 µM (inactive); in [4], 23.1 µM (inactive); in experiment [17] it was 36.4 µM (inactive); in [5], > 100 µM (inactive); in experiment [6], 51.4 µM (inactive). Moreover, the GI50 in experiment [18] was 8.53 µM (inactive); in [19], 33 µM (inactive); in experiment [7], 46.2 µM (inactive); in experiment [8], 21.4 µM (inactive); in experiment [9] it was 30.3 µM (inactive); in experiment [10], 36.4 µM (inactive). Also, the GI50 in experiment [11] was 67.6 µM (inactive); in experiment [12], > 100 µM (inactive); in experiment [15], 54.2 µM (inactive); in experiment [16] it was 34.8 µM (inactive).
Consider `COC(=O)c1sc2ncc3c(c2c1N)CC(C)CC3` (stereo not given), for which the GI50 in experiment [1] is > 100 µM (inactive); in experiment [2], > 100 µM (inactive); in experiment [3], > 100 µM (inactive); in [4], 67 µM (inactive); in experiment [5], > 100 µM (inactive); in experiment [6], > 100 µM (inactive). Besides, the GI50 in [18], in [19], in experiment [20], in [7], in [9] and in experiment [10] was > 100 µM (inactive) in each case. Moreover, the GI50 is > 100 µM (inactive) in [11]; 41.4 µM (inactive) in experiment [12]; > 100 µM (inactive) in experiment [13]; > 100 µM (inactive) in experiment [14]; > 100 µM (inactive) in experiment [15]; > 100 µM (inactive) in experiment [16].
`O=C(O)CCCCC1CCSS1` (stereo not drawn) [LIPOIC ACID, ALPHA]: the GI50 in [2], in [3], in experiment [4], in experiment [17], in [5] and in experiment [6] was > 100 µM (inactive) in each case. Also, the GI50 in experiment [18], in experiment [19], in [20], in [7], in [8] and in [9] was > 100 µM (inactive) throughout. Further, the GI50 was > 100 µM (inactive) in [10]; > 100 µM (inactive) in experiment [11]; 93.8 µM (inactive) in experiment [12]; > 100 µM (inactive) in experiment [13]; > 100 µM (inactive) in [14]; > 100 µM (inactive) in [16].

These data come from ChEMBL document CHEMBL1201862, “PubChem BioAssay data set” (2004).
